Laboratory results: article PMC8400042, “Selective DNA Gyrase Inhibitors: Multi-Target in Silico Profiling with 3D-Pharmacophores” (Pharmaceuticals, 2021)
Like-named read-outs stand apart in the source and are kept apart here.

Experiments:
[1] = biological target: T1, human Hsp90α NTD (Homo sapiens, UniProt P07900); assay: fluorescence-based thermal shift assay (FTSA), binding to Hsp90; details: for Kd: FTSA
T1 construct: Production and purification of recombinant Hsp90α NTD have been described previously; made in house
Protocol: Production and purification of recombinant Hsp90α NTD have been described previously. The molecular weight of the protein has been confirmed by high-resolution mass spectrometry, purity by SDS-PAGE, and the concentration was determined by UV-VIS spectrophotometry at 280 nm. The synthesis, chemical structure determination, and purity of compounds 1-7 have been previously described.
Compound binding to Hsp90 was determined by the fluorescence-based thermal shift assay (FTSA) which determines the thermal stability of the free and ligand-bound protein [61, 62, 63]. The stabilization efficiency is directly related to the ligand-binding affinity. The experiments were carried out with Corbett Rotor-Gene 6000 (QIAGEN Rotor-Gene Q) spectrofluorimeter (using excitation 365 ± 20 nm and detection at 460 ± 15 nm). Protein solutions in the presence of various concentrations of a compound were heated from 25 to 95 °C at a rate of 1 °C/min. Protein unfolding was monitored by measuring the fluorescence of 8-anilino-1-naphthalenesulfonate (ANS) dye at added 50 μM concentration. Increasing concentration of a compound shifted the protein denaturation temperature increasingly upwards depending on the binding affinity. Samples contained 5 μM protein, ligand concentration ranging from 0 to 200 μM, […] (pH 7.5) containing […] and 2% DMSO. Protein melting temperatures were determined by fitting the fluorescence curves while the compound dosing curves were simulated as described previously. All experiments were repeated at least twice.

[2] = biological target: T2, human DNA topoisomerase IIα (Homo sapiens, UniProt P11388); assay: human DNA topoisomerase IIα DNA relaxation assay (Inspiralis); format: biochemical; details: for IC50: DNA relaxation assay, read-out: Human TopoII IC50; for inhibition of TopoII (in words): concentrations up to 100 μM
T2 construct: purchased Inspiralis
T2 sequence (P11388 whole entry): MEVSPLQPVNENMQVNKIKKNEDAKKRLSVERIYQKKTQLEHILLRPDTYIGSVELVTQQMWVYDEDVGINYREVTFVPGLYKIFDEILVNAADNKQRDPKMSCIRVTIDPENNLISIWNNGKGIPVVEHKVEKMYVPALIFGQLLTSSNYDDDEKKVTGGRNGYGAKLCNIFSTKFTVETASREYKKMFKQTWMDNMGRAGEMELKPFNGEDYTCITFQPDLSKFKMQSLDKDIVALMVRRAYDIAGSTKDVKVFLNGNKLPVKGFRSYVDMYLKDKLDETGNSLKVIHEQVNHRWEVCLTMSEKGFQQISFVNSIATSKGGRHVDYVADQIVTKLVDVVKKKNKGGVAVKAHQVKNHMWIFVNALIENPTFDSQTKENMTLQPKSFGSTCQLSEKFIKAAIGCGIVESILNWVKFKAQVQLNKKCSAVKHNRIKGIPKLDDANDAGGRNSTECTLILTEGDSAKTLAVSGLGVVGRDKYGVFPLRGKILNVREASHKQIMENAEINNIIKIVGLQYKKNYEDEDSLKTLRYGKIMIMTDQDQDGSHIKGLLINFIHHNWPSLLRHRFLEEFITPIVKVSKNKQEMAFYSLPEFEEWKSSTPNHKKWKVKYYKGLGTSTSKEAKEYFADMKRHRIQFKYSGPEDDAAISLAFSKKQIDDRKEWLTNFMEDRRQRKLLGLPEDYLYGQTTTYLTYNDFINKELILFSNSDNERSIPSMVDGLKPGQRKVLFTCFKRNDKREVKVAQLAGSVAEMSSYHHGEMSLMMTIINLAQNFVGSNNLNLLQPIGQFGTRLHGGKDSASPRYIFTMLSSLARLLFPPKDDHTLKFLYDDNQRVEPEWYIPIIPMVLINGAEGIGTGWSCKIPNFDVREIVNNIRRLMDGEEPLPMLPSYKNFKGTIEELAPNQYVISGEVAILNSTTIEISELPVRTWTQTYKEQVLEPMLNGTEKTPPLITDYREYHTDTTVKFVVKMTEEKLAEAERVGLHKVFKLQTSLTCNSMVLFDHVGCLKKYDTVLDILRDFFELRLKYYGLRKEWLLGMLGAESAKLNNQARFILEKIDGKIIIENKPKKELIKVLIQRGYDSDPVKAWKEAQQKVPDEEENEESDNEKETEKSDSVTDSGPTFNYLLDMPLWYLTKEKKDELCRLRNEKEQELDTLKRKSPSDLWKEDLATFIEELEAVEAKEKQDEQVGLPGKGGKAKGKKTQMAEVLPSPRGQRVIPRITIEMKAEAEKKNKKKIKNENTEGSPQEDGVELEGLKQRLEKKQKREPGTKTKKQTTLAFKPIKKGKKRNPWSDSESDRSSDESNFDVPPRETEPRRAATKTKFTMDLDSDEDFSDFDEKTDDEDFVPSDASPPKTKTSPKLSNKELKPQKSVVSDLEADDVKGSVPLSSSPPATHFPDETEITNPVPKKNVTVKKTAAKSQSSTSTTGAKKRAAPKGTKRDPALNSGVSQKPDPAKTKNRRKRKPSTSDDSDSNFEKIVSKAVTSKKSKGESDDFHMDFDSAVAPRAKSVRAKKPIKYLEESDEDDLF
Protocol: Inhibitory activities were determined in an assay from Inspiralis on streptavidin-coated 96-well microtitre plates from Thermo Scientific Pierce. […] After washing off the unbound oligonucleotide, the enzyme assay was performed. […] Reaction solutions were incubated at 37 °C for 30 min. After that, the TF buffer (50 mM NaOAc, 50 mM NaCl, and 50 mM MgCl2, pH 5.0) was added to terminate the enzymatic reaction. After additional incubation for 30 min at RT, during which biotin–oligonucleotide–plasmid triplex was formed, the unbound plasmid was washed off using TF buffer, and Diamond Dye in T10 buffer (10 mM Tris·HCl, 1 mM EDTA, pH 8.0) was added. […] Initial screening was done at 100 or 10 μM concentrations of inhibitors. […] GraphPad Prism 6 software was used to calculate the IC50 values. The results are reported as the average value of three independent measurements.

[3] = biological target: T1, human Hsp90α NTD; assay: fluorescence-based thermal shift assay (FTSA), binding to Hsp90; details: concentrations up to 100 μM
[4] = biological target: T3, E. coli DNA gyrase (Escherichia coli, UniProt P0AES6); details: cited from earlier work
T3 construct: purchased Inspiralis

[5] = biological target: T3, E. coli DNA gyrase; assay: DNA supercoiling assay (Inspiralis); format: biochemical
Protocol: The DNA supercoiling assay from Inspiralis for the determination of IC50 values was performed according to previously reported procedures.

[6] = biological target: T1, human Hsp90α NTD; details: cited from earlier work
[7] = test system: human TopoII; set-up: method as in PMID 2537141; details: cited from earlier work
[8] = test system: Hsp90 C-terminal domain (CTD); set-up: method as in PMID 10945979, PMID 10655441; details: cited from earlier work
[9] = DNA supercoiling assay, read-out: E. coli DNA gyrase IC50

Row | Compound | activity at Hsp90 in vitro (in words) [1] | Kd [1] | activity at TopoII in vitro (in words) [2] | IC50 [2] | activity at GyrB / DNA gyrase in vitro (in words) [5] | IC50 [5, 9] | other results
1 | O=C(O)C(=O)Nc1ccc2nc(NC(=O)c3cc(Cl)c(Cl)[nH]3)sc2c1 [Compound 1] | inactive | > 100 µM | inactive | > 100 µM |  |  | inhibition of TopoII (in words) [2]: devoid of activity; binding to Hsp90α NTD (in words) [3]: devoid of activity
2 | Cc1[nH]c(C(=O)N[C@H]2CCc3nc(NC(=O)CC(=O)O)sc3C2)c(Br)c1Br [Compound 2] | inactive | > 100 µM | inactive | > 100 µM |  |  | inhibition of TopoII (in words) [2]: devoid of activity; binding to Hsp90α NTD (in words) [3]: devoid of activity; IC50 ([4]; DNA supercoiling assay, read-out: Escherichia coli DNA gyrase IC50): < 100 nM; IC50 ([4]; read-out: E. coli DNA gyrase IC50): 20 nM
3 | COc1ccc(-c2snnc2-c2cc(Cl)c(O)cc2O)cc1 [Compound 3] |  |  | no inhibition | > 100 µM | no inhibition |  | IC50 [5]: > 100 µM
4 | CC(C)Cc1cc(-c2nnsc2-c2ccccc2)c(O)cc1O [Compound 4] |  |  | no inhibition | > 100 µM | no inhibition | > 100 µM | Kd [6]: 6.6 nM
5 | O=c1nc(SCc2cc(F)cc(C(F)(F)F)c2)nc(SCc2ccccc2F)[nH]1 [Compound 5] | inactive | > 100 µM |  |  | inactive | > 100 µM | 
6 | O=c1nc(SCc2cc(F)cc(C(F)(F)F)c2)nc(SCc2ccc(Cl)cc2)[nH]1 [Compound 6] | inactive | > 100 µM |  |  | inactive | > 100 µM | 
7 | NS(=O)(=O)c1c(F)c(F)c(SCCO)c(F)c1NC1CCCCCCC1 [Compound 7] | inactive | > 100 µM | inactive | > 100 µM | inactive | > 100 µM | 
8 | CO[C@@H]1[C@@H](OC(N)=O)[C@@H](O)[C@H](Oc2ccc3c(O)c(NC(=O)c4ccc(O)c(CC=C(C)C)c4)c(=O)oc3c2C)OC1(C)C [novobiocin] |  |  |  |  |  |  | inhibition of human TopoII (in words) [7]: inhibit; binding to allosteric binding site at Hsp90 CTD (in words) [8]: weakly bind
